Reference: PubChem BioAssay AID248 (DTP/NCI, 2004)
Values joined by “and” are separate entries in the source; they are usually repeats but may differ in a detail not shown here. Equal values may be shown once. Toxic doses and inconclusive results are not listed. Cut-off read from the data, not from the text of the source: active = T/C of 150% or more; inactive = T/C below 125%.

System: L1210 leukemia ip in BDF1 mice, survival T/C
Assay: NCI In Vivo Anticancer Drug Screen. Data for tumor model L1210 Leukemia (intraperitoneal) in B6D2F1 (BDF1) mice
Conditions: endpoint: mean survival time, higher = longer survival
Outline: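 Read-out is survival time, reported as the treated-group measurement over the vehicle-control measurement.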

[1] = dose: 100.0 mg/kg/injection, schedule: Q01DX009 (ip), vehicle: saline with Tween-80
[2] = dose: 100.0 mg/kg/injection, schedule: Q04DX003 (ip), vehicle: saline with Tween-80
[3] = dose: 200.0 mg/kg/injection, schedule: Q01DX009 (ip), vehicle: saline with Tween-80
[4] = dose: 200.0 mg/kg/injection, schedule: Q04DX003 (ip), vehicle: saline with Tween-80
[5] = dose: 400.0 mg/kg/injection, schedule: Q01DX009 (ip), vehicle: saline with Tween-80
[6] = dose: 400.0 mg/kg/injection, schedule: Q04DX003 (ip), vehicle: saline with Tween-80
[7] = dose: 100.0 mg/kg/injection, schedule: Q01DX009 (ip), vehicle: Klucel (hydroxypropylcellulose) (HPC)
[8] = dose: 200.0 mg/kg/injection, schedule: Q01DX009 (ip), vehicle: Klucel (hydroxypropylcellulose) (HPC)
[9] = dose: 100.0 mg/kg/injection, schedule: Q01DX009 (ip), vehicle: saline
[10] = dose: 100.0 mg/kg/injection, schedule: Q04DX003 (ip), vehicle: saline
[11] = dose: 200.0 mg/kg/injection, schedule: Q01DX009 (ip), vehicle: saline
[12] = dose: 200.0 mg/kg/injection, schedule: Q04DX003 (ip), vehicle: saline
[13] = dose: 50.0 mg/kg/injection, schedule: Q04DX002 (ip), vehicle: Klucel (hydroxypropylcellulose) (HPC)
[14] = dose: 100.0 mg/kg/injection, schedule: Q04DX002 (ip), vehicle: Klucel (hydroxypropylcellulose) (HPC)
[15] = dose: 200.0 mg/kg/injection, schedule: Q04DX002 (ip), vehicle: Klucel (hydroxypropylcellulose) (HPC)
[16] = dose: 400.0 mg/kg/injection, schedule: Q04DX002 (ip), vehicle: Klucel (hydroxypropylcellulose) (HPC)
[17] = dose: 100.0 mg/kg/injection, schedule: Q01DX001 (ip), vehicle: saline
[18] = dose: 200.0 mg/kg/injection, schedule: Q01DX001 (ip), vehicle: saline
[19] = dose: 400.0 mg/kg/injection, schedule: Q01DX001 (ip), vehicle: saline
[20] = dose: 75.0 mg/kg/injection, schedule: Q01DX001 (ip), vehicle: acetone
[21] = dose: 150.0 mg/kg/injection, schedule: Q01DX001 (ip), vehicle: acetone
[22] = dose: 400.0 mg/kg/injection, schedule: Q04DX003 (ip), vehicle: saline

Measured: T/C

COc1ccc(N(C)C(C)=S)cc1
inactive: dose: 100.0 mg/kg/injection, schedule: Q04DX003 (ip), vehicle: gum acacia 96 % of control | dose: 200.0 mg/kg/injection, schedule: Q04DX003 (ip), vehicle: gum acacia 103 % of control

CN(C)CCCNCC(=O)Nc1ccc(S(=O)(=O)c2ccc([N+](=O)[O-])cc2)cc1
inactive: dose: 75.0 mg/kg/injection, schedule: Q01DX001 (ip), vehicle: saline 104 % of control | dose: 150.0 mg/kg/injection, schedule: Q01DX001 (ip), vehicle: saline 104 % of control

Cc1cc(Cl)cc(C(=O)Cl)c1O
inactive: dose: 100.0 mg/kg/injection, schedule: Q04DX002 (ip), vehicle: saline with Tween-80 111 % of control | dose: 200.0 mg/kg/injection, schedule: Q04DX002 (ip), vehicle: saline with Tween-80 107 % of control | dose: 400.0 mg/kg/injection, schedule: Q04DX002 (ip), vehicle: saline with Tween-80 103 % of control

O=C(NCc1cnccn1)c1ccccc1Cl
inactive: [1] 86 % of control | [2] 96 % of control | [3] 104 % of control | [4] 96 % of control | [5] 102 % of control | [6] 104 % of control

O=C1/C(=C\c2ccccc2)C2CCC(C2)/C1=C\c1ccccc1
inactive: dose: 50.0 mg/kg/injection, schedule: Q01DX009 (ip), vehicle: Klucel (hydroxypropylcellulose) (HPC) 99 % of control | [7] 102 % of control | [8] 99 % of control

CCOC(=O)c1ccc(N(CCC(=O)CBr)C(C)=O)cc1
inactive: dose: 5.0 mg/kg/injection, schedule: Q01DX001 (ip), vehicle: carboxymethylcellulose (CMC) 97 % of control | dose: 10.0 mg/kg/injection, schedule: Q01DX001 (ip), vehicle: carboxymethylcellulose (CMC) 100 % of control | dose: 20.0 mg/kg/injection, schedule: Q01DX001 (ip), vehicle: carboxymethylcellulose (CMC) 100 % of control | dose: 40.0 mg/kg/injection, schedule: Q01DX001 (ip), vehicle: carboxymethylcellulose (CMC) 97 % of control

O=C1NCCc2c1[nH]c1ccccc21
inactive: dose: 50.0 mg/kg/injection, schedule: Q01DX009 (ip), vehicle: saline 90 % of control | [9] 91 % of control | [10] 101 % of control | [11] 86 % of control | [12] 93 % of control

OCCNCc1cccc(-c2ccccc2)c1O
inactive: [1] 93 % of control | [3] 87 % of control | [5] 101 % of control

CON(C)S(=O)(=O)c1ccc([N+](=O)[O-])cc1
inactive: dose: 100.0 mg/kg/injection, schedule: Q01DX001 (ip), vehicle: Klucel (hydroxypropylcellulose) (HPC) 102 % of control | dose: 200.0 mg/kg/injection, schedule: Q01DX001 (ip), vehicle: Klucel (hydroxypropylcellulose) (HPC) 98 % of control

O=C(/C=C/c1ccccc1)N/N=C/c1ccccc1Cl
inactive: [13] 108 % of control | [14] 100 % of control and 116 % of control | [15] 111 % of control | [16] 101 % of control and 110 % of control

C1CCC2C(C1)CCCC2C1C2C3CCCCC3CCC2C2CCC3CCCCC3C21 (centres undefined)
inactive: [2] 91 % of control | [4] 91 % of control | [6] 88 % of control

CCOC(=O)/C(C#N)=C1\C=C(NCc2ccccc2)CCC1
inactive: [17] 89 % of control | [18] 96 % of control | [19] 92 % of control

CCCCN(CCCC)CCNc1cc(C)nc(/N=C(\N)Nc2ccc(Cl)c(Cl)c2)n1
inactive: dose: 38.0 mg/kg/injection, schedule: Q01DX009 (ip), vehicle: other 91 % of control | dose: 38.0 mg/kg/injection, schedule: Q04DX003 (ip), vehicle: other 104 % of control | dose: 75.0 mg/kg/injection, schedule: Q01DX001 (ip), vehicle: other 101 % of control | dose: 75.0 mg/kg/injection, schedule: Q01DX009 (ip), vehicle: other 105 % of control | dose: 75.0 mg/kg/injection, schedule: Q04DX003 (ip), vehicle: other 114 % of control | dose: 150.0 mg/kg/injection, schedule: Q01DX001 (ip), vehicle: other 103 % of control | dose: 150.0 mg/kg/injection, schedule: Q04DX003 (ip), vehicle: other 87 % of control | dose: 300.0 mg/kg/injection, schedule: Q01DX001 (ip), vehicle: other 95 % of control

FC(F)(F)c1cccc(C(OCCN2CCCC2)c2ccccc2)c1 (centres undefined)
inactive: dose: 6.25 mg/kg/injection, schedule: Q01DX009 (ip), vehicle: saline 92 % of control | dose: 12.5 mg/kg/injection, schedule: Q01DX009 (ip), vehicle: saline 95 % of control | dose: 25.0 mg/kg/injection, schedule: Q01DX009 (ip), vehicle: saline 110 % of control

Clc1ccc2c(c1)Nc1ccccc1S2
inactive: [7] 88 % of control | dose: 100.0 mg/kg/injection, schedule: Q04DX003 (ip), vehicle: Klucel (hydroxypropylcellulose) (HPC) 94 % of control | [8] 95 % of control | dose: 200.0 mg/kg/injection, schedule: Q04DX003 (ip), vehicle: Klucel (hydroxypropylcellulose) (HPC) 98 % of control | dose: 400.0 mg/kg/injection, schedule: Q01DX009 (ip), vehicle: Klucel (hydroxypropylcellulose) (HPC) 96 % of control | dose: 400.0 mg/kg/injection, schedule: Q04DX003 (ip), vehicle: Klucel (hydroxypropylcellulose) (HPC) 100 % of control

COC(=O)c1cc(C)[nH]c(=O)c1CN
inactive: dose: 75.0 mg/kg/injection, schedule: Q01DX001 (ip), vehicle: water 104 % of control | dose: 150.0 mg/kg/injection, schedule: Q01DX001 (ip), vehicle: water 107 % of control

NC(=O)N/N=C(\CF)C(=O)O
inactive: dose: 6.0 mg/kg/injection, schedule: Q01DX009 (ip), vehicle: Klucel (hydroxypropylcellulose) (HPC) 98 % of control | dose: 12.0 mg/kg/injection, schedule: Q01DX009 (ip), vehicle: Klucel (hydroxypropylcellulose) (HPC) 110 % of control | dose: 24.0 mg/kg/injection, schedule: Q01DX009 (ip), vehicle: Klucel (hydroxypropylcellulose) (HPC) 101 % of control | dose: 48.0 mg/kg/injection, schedule: Q01DX009 (ip), vehicle: Klucel (hydroxypropylcellulose) (HPC) 102 % of control

NC(=O)OCc1ccccc1
inactive: [13] 98 % of control | [14] 98 % of control | [15] 94 % of control | [16] 94 % of control

CCN(CC)C(=O)c1cccc(COc2ccc(N3C(N)=NC(N)=NC3(C)C)cc2Cl)c1
inactive: dose: 25.0 mg/kg/injection, schedule: Q01DX009 (ip), vehicle: saline with Tween-80 107 % of control | dose: 50.0 mg/kg/injection, schedule: Q01DX009 (ip), vehicle: saline with Tween-80 107 % of control

COc1cccc(C(=O)O)c1O
inactive: [20] 101 % of control | [21] 98 % of control

N#CCCN1CCN(CCC#N)CC1
inactive: [10] 96 % of control | [12] 103 % of control | [22] 100 % of control

Cc1c(C#N)sc2ccccc12
inactive: [17] 96 % of control | [18] 96 % of control | [19] 96 % of control

Nc1n[nH]c(N)n1.[Co]
inactive: dose: 50.0 mg/kg/injection, schedule: Q04DX003 (ip), vehicle: saline 103 % of control | [9] 100 % of control | [10] 100 % of control | [11] 94 % of control | [12] 108 % of control | dose: 400.0 mg/kg/injection, schedule: Q01DX009 (ip), vehicle: saline 107 % of control | [22] 105 % of control

COc1cc(C(=O)N=Nc2c(O)[nH]c3ccc(Br)cc23)cc(OC)c1OC
inactive: [14] 115 % of control | [15] 104 % of control | [16] 115 % of control

Nc1ccc(C(=O)C(=O)c2ccc(N)cc2)cc1
inactive: [20] 102 % of control | [21] 94 % of control
